In PubChem BioAssay AID248 (DTP/NCI, 2004):
“And” between values parts separate entries of the source, which are not always exact repeats. Equal values may be shown once. Toxic doses and inconclusive results are not listed.

System: L1210 leukemia ip in BDF1 mice, survival T/C
Assay: NCI In Vivo Anticancer Drug Screen. Data for tumor model L1210 Leukemia (intraperitoneal) in B6D2F1 (BDF1) mice
Conditions: higher = longer survival
In short: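 Read-out is survival time, reported as the treated-group measurement over the vehicle-control measurement.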

Compound: O=C(O)CCCc1ccc(N(CCCl)CCCl)cc1
- T/C (endpoint: mean survival time, dose: 0.5 mg/kg/injection, schedule: Q01DX009 (ip), vehicle: saline with Tween-80): 101 % of control and 104 % of control
- T/C (endpoint: mean survival time, dose: 1.0 mg/kg/injection, schedule: Q01DX009 (ip), vehicle: saline with Tween-80): 96 % of control and 106 % of control
- T/C (endpoint: mean survival time, dose: 1.0 mg/kg/injection, schedule: Q04DX002 (ip), vehicle: saline with Tween-80): 95 % of control and 105 % of control
- T/C (endpoint: mean survival time, dose: 1.0 mg/kg/injection, schedule: Q12HX018 (ip), vehicle: saline with Tween-80): 107 % of control
- T/C (endpoint: mean survival time, dose: 1.81 mg/kg/injection, schedule: Q01DX Z (ip), vehicle: carboxymethylcellulose (CMC)): 103 % of control
- T/C (endpoint: mean survival time, dose: 2.0 mg/kg/injection, schedule: Q01DX009 (ip), vehicle: saline with Tween-80): 103 % of control and 107 % of control
- T/C (endpoint: mean survival time, dose: 2.0 mg/kg/injection, schedule: Q04DX002 (ip), vehicle: saline with Tween-80): 100 % of control and 105 % of control
- T/C (endpoint: mean survival time, dose: 2.0 mg/kg/injection, schedule: Q08HX027 (ip), vehicle: acetone): 120 % of control
- T/C (endpoint: mean survival time, dose: 2.0 mg/kg/injection, schedule: Q12HX018 (ip), vehicle: acetone): 110 % of control and 111 % of control and 121 % of control
- T/C (endpoint: mean survival time, dose: 2.0 mg/kg/injection, schedule: Q12HX018 (ip), vehicle: saline with Tween-80): 115 % of control
- T/C (endpoint: mean survival time, dose: 2.5 mg/kg/injection, schedule: Q01DX001 (ip), vehicle: carboxymethylcellulose (CMC)): 112 % of control
- T/C (endpoint: mean survival time, dose: 3.62 mg/kg/injection, schedule: Q01DX Z (ip), vehicle: carboxymethylcellulose (CMC)): 106 % of control
- T/C (endpoint: mean survival time, dose: 4.0 mg/kg/injection, schedule: Q01DX009 (ip), vehicle: acetone): 112 % of control and 123 % of control
- T/C (endpoint: mean survival time, dose: 4.0 mg/kg/injection, schedule: Q01DX009 (ip), vehicle: saline with Tween-80): 100 % of control and 115 % of control
- T/C (endpoint: mean survival time, dose: 4.0 mg/kg/injection, schedule: Q04DX002 (ip), vehicle: saline with Tween-80): 96 % of control and 102 % of control
- T/C (endpoint: mean survival time, dose: 4.0 mg/kg/injection, schedule: Q12HX018 (ip), vehicle: Klucel (hydroxypropylcellulose) (HPC)): 115 % of control
- T/C (endpoint: mean survival time, dose: 4.0 mg/kg/injection, schedule: Q12HX018 (ip), vehicle: acetone): 122 % of control
- T/C (endpoint: mean survival time, dose: 4.0 mg/kg/injection, schedule: Q12HX018 (ip), vehicle: other): 112 % of control and 121 % of control
- T/C (endpoint: mean survival time, dose: 4.0 mg/kg/injection, schedule: Q12HX018 (ip), vehicle: saline with Tween-80): 124 % of control
- T/C (endpoint: mean survival time, dose: 5.0 mg/kg/injection, schedule: Q01DX001 (ip), vehicle: carboxymethylcellulose (CMC)): 103 % of control
- T/C (endpoint: mean survival time, dose: 5.0 mg/kg/injection, schedule: Q08HX027 (ip), vehicle: acetone): 90 % of control
- T/C (endpoint: mean survival time, dose: 5.8 mg/kg/injection, schedule: Q01DX Z (ip), vehicle: carboxymethylcellulose (CMC)): 101 % of control and 103 % of control
- T/C (endpoint: mean survival time, dose: 6.0 mg/kg/injection, schedule: Q12HX018 (ip), vehicle: Klucel (hydroxypropylcellulose) (HPC)): 116 % of control
- T/C (endpoint: mean survival time, dose: 6.0 mg/kg/injection, schedule: Q12HX018 (ip), vehicle: acetone): 162 % of control
- T/C (endpoint: mean survival time, dose: 6.0 mg/kg/injection, schedule: Q12HX018 (ip), vehicle: other): 120 % of control
- T/C (endpoint: mean survival time, dose: 6.0 mg/kg/injection, schedule: Q12HX018 (ip), vehicle: saline with Tween-80): 120 % of control
- T/C (endpoint: mean survival time, dose: 6.25 mg/kg/injection, schedule: Q01DX Z (ip), vehicle: carboxymethylcellulose (CMC)): 113 % of control
- T/C (endpoint: mean survival time, dose: 7.25 mg/kg/injection, schedule: Q01DX Z (ip), vehicle: carboxymethylcellulose (CMC)): 98 % of control and 103 % of control and 120 % of control
- T/C (endpoint: mean survival time, dose: 8.0 mg/kg/injection, schedule: Q01DX009 (ip), vehicle: saline with Tween-80): 115 % of control and 116 % of control
- T/C (endpoint: mean survival time, dose: 8.0 mg/kg/injection, schedule: Q04DX002 (ip), vehicle: saline with Tween-80): 96 % of control and 98 % of control
- T/C (endpoint: mean survival time, dose: 8.0 mg/kg/injection, schedule: Q12HX018 (ip), vehicle: Klucel (hydroxypropylcellulose) (HPC)): 114 % of control and 118 % of control
- T/C (endpoint: mean survival time, dose: 8.0 mg/kg/injection, schedule: Q12HX018 (ip), vehicle: acetone): 100 % of control
- T/C (endpoint: mean survival time, dose: 8.0 mg/kg/injection, schedule: Q12HX018 (ip), vehicle: saline with Tween-80): 118 % of control
- T/C (endpoint: mean survival time, dose: 9.66 mg/kg/injection, schedule: Q01DX Z (ip), vehicle: carboxymethylcellulose (CMC)): 100 % of control and 114 % of control
- T/C (endpoint: mean survival time, dose: 10.0 mg/kg/injection, schedule: Q01DX001 (ip), vehicle: carboxymethylcellulose (CMC)): 109 % of control
- T/C (endpoint: mean survival time, dose: 10.0 mg/kg/injection, schedule: Q12HX018 (ip), vehicle: acetone): 88 % of control
- T/C (endpoint: mean survival time, dose: 12.0 mg/kg/injection, schedule: Q01DX009 (ip), vehicle: acetone): 122 % of control
- T/C (endpoint: mean survival time, dose: 12.0 mg/kg/injection, schedule: Q12HX018 (ip), vehicle: Klucel (hydroxypropylcellulose) (HPC)): 103 % of control and 121 % of control
- T/C (endpoint: mean survival time, dose: 12.0 mg/kg/injection, schedule: Q12HX018 (ip), vehicle: saline with Tween-80): 109 % of control
- T/C (endpoint: mean survival time, dose: 12.5 mg/kg/injection, schedule: Q01DX Z (ip), vehicle: carboxymethylcellulose (CMC)): 110 % of control
- T/C (endpoint: mean survival time, dose: 14.5 mg/kg/injection, schedule: Q01DX Z (ip), vehicle: carboxymethylcellulose (CMC)): 114 % of control and 117 % of control
- T/C (endpoint: mean survival time, dose: 16.0 mg/kg/injection, schedule: Q01DX009 (ip), vehicle: acetone): 101 % of control and 115 % of control
- T/C (endpoint: mean survival time, dose: 16.0 mg/kg/injection, schedule: Q01DX009 (ip), vehicle: saline with Tween-80): 121 % of control
- T/C (endpoint: mean survival time, dose: 16.0 mg/kg/injection, schedule: Q04DX002 (ip), vehicle: saline with Tween-80): 100 % of control and 108 % of control
- T/C (endpoint: mean survival time, dose: 16.0 mg/kg/injection, schedule: Q12HX018 (ip), vehicle: Klucel (hydroxypropylcellulose) (HPC)): 92 % of control
- T/C (endpoint: mean survival time, dose: 18.0 mg/kg/injection, schedule: Q01DX001 (ip), vehicle: carboxymethylcellulose (CMC)): 105 % of control
- T/C (endpoint: mean survival time, dose: 20.0 mg/kg/injection, schedule: Q01DX001 (ip), vehicle: carboxymethylcellulose (CMC)): 115 % of control
- T/C (endpoint: mean survival time, dose: 20.0 mg/kg/injection, schedule: Q01DX009 (ip), vehicle: acetone): 92 % of control
- T/C (endpoint: mean survival time, dose: 20.0 mg/kg/injection, schedule: Q12HX018 (ip), vehicle: Klucel (hydroxypropylcellulose) (HPC)): 89 % of control
- T/C (endpoint: mean survival time, dose: 25.0 mg/kg/injection, schedule: Q01DX Z (ip), vehicle: carboxymethylcellulose (CMC)): 116 % of control
- T/C (endpoint: mean survival time, dose: 27.0 mg/kg/injection, schedule: Q01DX001 (ip), vehicle: carboxymethylcellulose (CMC)): 109 % of control
- T/C (endpoint: mean survival time, dose: 27.0 mg/kg/injection, schedule: Q01DX001 (ip), vehicle: saline with Tween-80): 113 % of control and 115 % of control
- T/C (endpoint: mean survival time, dose: 31.0 mg/kg/injection, schedule: Q04DX002 (ip), vehicle: saline with Tween-80): 108 % of control and 109 % of control
- T/C (endpoint: mean survival time, dose: 40.0 mg/kg/injection, schedule: Q01DX001 (ip), vehicle: carboxymethylcellulose (CMC)): 115 % of control
- T/C (endpoint: mean survival time, dose: 41.0 mg/kg/injection, schedule: Q01DX001 (ip), vehicle: carboxymethylcellulose (CMC)): 114 % of control
- T/C (endpoint: mean survival time, dose: 41.0 mg/kg/injection, schedule: Q01DX001 (ip), vehicle: saline with Tween-80): 115 % of control and 121 % of control
- T/C (endpoint: median survival time, dose: 3.0 mg/kg/injection, schedule: Q01DX009 (ip), vehicle: saline): 99 % of control
- T/C (endpoint: median survival time, dose: 6.0 mg/kg/injection, schedule: Q01DX009 (ip), vehicle: saline): 105 % of control
- T/C (endpoint: median survival time, dose: 12.0 mg/kg/injection, schedule: Q01DX009 (ip), vehicle: saline): 96 % of control
- T/C (endpoint: median survival time, dose: 24.0 mg/kg/injection, schedule: Q01DX009 (ip), vehicle: saline): 89 % of control

Compound: CCCCCCCCCCCCCCCCCC(=O)OCC1OC(OC2(COC(=O)CCCCCCCCCCCCCCCCC)OC(COC(=O)CCCCCCCCCCCCCCCCC)C(OC(=O)CCCCCCCCCCCCCCCCC)C2OC(=O)CCCCCCCCCCCCCCCCC)C(OC(=O)CCCCCCCCCCCCCCCCC)C(OC(=O)CCCCCCCCCCCCCCCCC)C1OC(=O)CCCCCCCCCCCCCCCCC (configuration not stated)
- T/C (endpoint: mean survival time, dose: 100.0 mg/kg/injection, schedule: Q01DX001 (ip), vehicle: other): 93 % of control
- T/C (endpoint: mean survival time, dose: 200.0 mg/kg/injection, schedule: Q01DX001 (ip), vehicle: other): 90 % of control
- T/C (endpoint: mean survival time, dose: 400.0 mg/kg/injection, schedule: Q01DX001 (ip), vehicle: other): 97 % of control

Compound: CCN(CCCl)CCNc1c2ccccc2nc2c1ccc1ccccc12
- T/C (endpoint: mean survival time, dose: 1.25 mg/kg/injection, schedule: Q01DX005 (ip), vehicle: saline): 116 % of control
- T/C (endpoint: mean survival time, dose: 2.5 mg/kg/injection, schedule: Q01DX005 (ip), vehicle: saline): 115 % of control
- T/C (endpoint: mean survival time, dose: 5.0 mg/kg/injection, schedule: Q01DX005 (ip), vehicle: saline): 107 % of control

Compound: c1ccc([P+](c2ccccc2)(c2ccccc2)c2ccccc2)cc1
- T/C (endpoint: mean survival time, dose: 2.5 mg/kg/injection, schedule: Q01DX009 (ip), vehicle: saline): 110 % of control
- T/C (endpoint: mean survival time, dose: 2.5 mg/kg/injection, schedule: Q04DX003 (ip), vehicle: saline): 103 % of control
- T/C (endpoint: mean survival time, dose: 5.0 mg/kg/injection, schedule: Q01DX001 (ip), vehicle: saline): 110 % of control
- T/C (endpoint: mean survival time, dose: 5.0 mg/kg/injection, schedule: Q01DX009 (ip), vehicle: saline): 114 % of control
- T/C (endpoint: mean survival time, dose: 5.0 mg/kg/injection, schedule: Q04DX003 (ip), vehicle: saline): 106 % of control
- T/C (endpoint: mean survival time, dose: 10.0 mg/kg/injection, schedule: Q01DX001 (ip), vehicle: saline): 94 % of control
- T/C (endpoint: mean survival time, dose: 10.0 mg/kg/injection, schedule: Q04DX003 (ip), vehicle: saline): 109 % of control

Compound: Clc1nc2nc[nH]c2nc1Cl
- T/C (endpoint: mean survival time, dose: 25.0 mg/kg/injection, schedule: Q04DX003 (ip), vehicle: saline with Tween-80): 98 % of control
- T/C (endpoint: mean survival time, dose: 50.0 mg/kg/injection, schedule: Q04DX003 (ip), vehicle: saline with Tween-80): 104 % of control
- T/C (endpoint: mean survival time, dose: 100.0 mg/kg/injection, schedule: Q04DX003 (ip), vehicle: Klucel (hydroxypropylcellulose) (HPC)): 92 % of control
- T/C (endpoint: mean survival time, dose: 100.0 mg/kg/injection, schedule: Q04DX003 (ip), vehicle: saline with Tween-80): 86 % of control
